Measurements published in PMC6600671, “Design and Synthesis of Indoleamine 2,3-Dioxygenase 1 Inhibitors and Evaluation of Their Use as Anti-Tumor Agents” (Molecules, 2019).
“And” between values parts separate entries of the source, which are not always exact repeats. Identical values can stand only once. “Also recorded” adds a separate entry of the source. Like-named read-outs stand apart in the source and are kept apart here.

Columns and labels:
IDO1 = conditions: cited from earlier work
[1] = Body weight and white blood cells in B16F10 xenograft mice; assay type: in vivo; conditions: 30 or 60 mg/kg/day oral or i.p.
Protocol: (§1) The mouse melanoma cells B16F10 were cultured and harvested in saline. At day 0 of the experiment, 1 × 10^6 cells were injected subcutaneously into mice, and treatment was initiated at day 1 following the mice enrolled randomly in control and experimental groups. For control group, 0.5% CMCNa was orally administered every day. Compound DX-03-12 was dissolved in 0.5% CMC for oral treatment or dissolved in saline for intraperitoneal treatment. When the mice were sacrificed, the tumors were stripped and weighted. […] The statistical analysis was performed with GraphPad Prism 8.0 software and the significance level was evaluated with a one-way ANOVA model.

MCF7 = test: Cell viability MTT assay, 72 h; assay type: cell-based; conditions: Homo sapiens; for inhibition at 50 µM: shown when calculated IC50 >50 μM, read-out: MCF7 inhibition rate (%) at 50 μM
Protocol: (§2) B16-F10 mouse melanoma cells, NCI-H460 human lung cancer cell line and MCF7 were obtained from American Type Culture Collection (ATCC). All the cell lines were cultured with Dulbecco’ modified Eagle’s medium (DMEM) (Invitrogen Corporation, Waltham, MA, USA) supplemented with 10% fetal bovine serum (FBS) (Hyclone, Waltham, MA, USA) and 1% penicillin streptomycin (Invitrogen) at 37 °C in 5% CO2.
(§3) The in vitro inhibitory effects of the compounds were measured by MTT assay. Briefly, different kinds of cells were plated in 96-well plates at a density of 2000/well. After attachment for overnight at 37 °C, the cells were treated with the compounds at various concentrations. After 72 h culture, the MTT reagent was added to each well, and plates were incubated for another 4 h at 37 °C. Then, the blue-purple crystal formamidine was dissolved in DMSO after discarding the supernatant. Samples were measured using microplate reader at a wavelength of 570 nm (Biotek Instruments, Inc., Winooski, VT, USA). IC50 values were calculated with GraphPad Prism 8.0 software.

[2] = system: NCI-H460 human lung cancer cell line; test: Cell viability MTT assay, 72 h; assay type: cell-based; conditions: for inhibition at 50 µM: shown when calculated IC50 >50 μM, read-out: H460 inhibition rate (%) at 50 μM
Protocol: as §2, §3

[3] = Single dose pharmacokinetic study in male ICR mice; assay type: in vivo; conditions: for half-life: read-out: t1/2β (converted)
Protocol: The animal Care and Welfare Committee of Institute of Materia Medica, Chinese Academy of Medical Sciences approved all animal care, housing, and laboratory procedures. Male ICR mice were used in the single dose pharmacokinetic studies. Compound DX-03-12 was prepared as 3 mg/mL suspension with 0.5% CMC (containing 0.3% Tween 80) for oral use and was formulated as 3 mg/mL solution with 5% DMSO in saline for intravenous injection. Twenty mice were divided into two groups, 10 in each group. After fasting 12 h with free access to water, mice were treated with a 3 mg/kg i.v. or 30 mg/kg oral dose of compound DX-03-12. Blood samples (50 µL) were collected at 5, 15, 30 min, 1, 2, 4, 6, 8, 12 and 24 h after oral administration and 2, 5, 15, 30 min, 1, 2, 4, 6, 8, 12 and 24 h after intravenous injection. After centrifugation, the plasma samples (15 µL) were precipitated by five volumes of acetonitrile. The supernatant were analyzed by liquid chromatography/tandem mass spectrometry (Agilent Technologies, Santa Clara, CA, USA) with a Zobax C18 column (50 mm × 2.1 mm, 3.5 µm). Compound detection was performed with the mass spectrometer in MRM (multiple reaction monitoring, Agilent Technologies, Santa Clara, CA, USA) negative ionization mode. The selected reaction monitoring transitions were m/z 348.5→160 for compound DX-03-12. The pharmacokinetic parameters were calculated with WinNonlin software V6.3 using non-compartmental analysis (Pharsight Corporation, Mountain View, CA, USA).

rhIDO1 = rhIDO1 (Homo sapiens, UniProt P14902); test: Enzyme-based IDO1 activity assay (kynurenine absorbance at 492 nm); assay type: biochemical; conditions: for IC50: rhIDO1 0.05 μM, 37 °C, 45 min, read-out: IDO IC50; for inhibition at 50 µM: shown when calculated IC50 >50 μM, read-out: IDO inhibition rate (%) at 50 μM
Sequence of rhIDO1 (P14902 whole entry): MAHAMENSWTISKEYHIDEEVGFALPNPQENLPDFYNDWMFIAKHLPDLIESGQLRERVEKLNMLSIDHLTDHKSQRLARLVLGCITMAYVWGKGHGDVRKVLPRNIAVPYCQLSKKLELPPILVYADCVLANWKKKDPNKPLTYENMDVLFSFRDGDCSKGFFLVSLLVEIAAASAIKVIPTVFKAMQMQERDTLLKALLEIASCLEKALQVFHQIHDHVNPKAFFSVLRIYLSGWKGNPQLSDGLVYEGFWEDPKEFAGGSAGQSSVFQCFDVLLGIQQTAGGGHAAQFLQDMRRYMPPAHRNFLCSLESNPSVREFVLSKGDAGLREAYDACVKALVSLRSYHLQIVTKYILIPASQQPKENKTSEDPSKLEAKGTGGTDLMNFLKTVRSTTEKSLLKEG
Protocol: (§4) The compounds on IDO1 or TDO activity were determined as follows: A standard reaction mixture (100 μL) containing 100 mM potassium phosphate buffer (pH 6.5), 40 mM ascorbic acid (neutralized with NaOH), 200 μg/mL catalase, 20 μM methylene blue and 0.05 μM rhIDO1 or rhTDO was added to the solution containing the substrate L-tryptophan and the test sample at a determined concentration. […] The yellow pigment derived from kynurenine was measured at 492 nm using a SYNERGY-H1 microplate reader (Biotek Instruments, Inc., Winooski, VT, USA). IC50 was analyzed using the GraphPad Prism 8.0 software (GraphPad Software, San Diego, CA, USA).

[4] = system: mouse melanoma cells B16F10; test: In vivo anti-tumor efficacy, B16F10 subcutaneous xenograft model; parameters: species or system mice; conditions: 60 mg/kg/day, 19 days treatment
Protocol: C57BL/6 mice were obtained from Beijing Vital River Laboratory Animal Technology Co., Ltd. (Beijing Vital River Laboratory Animal Technology Co., Ltd, Beijing, China). Studies involving mice were approved by the Experimental Animal Management and Welfare Committee at the Institute of Materia Medica, Peking Union Medical College.
as §1

rhTDO = rhTDO (Homo sapiens, UniProt P48775); test: Enzyme-based TDO activity assay (kynurenine absorbance at 492 nm); assay type: biochemical; conditions: for inhibition at 50 µM: shown when calculated IC50 >50 μM, read-out: TDO inhibition rate (%) at 50 μM
Sequence of rhTDO (P48775 whole entry): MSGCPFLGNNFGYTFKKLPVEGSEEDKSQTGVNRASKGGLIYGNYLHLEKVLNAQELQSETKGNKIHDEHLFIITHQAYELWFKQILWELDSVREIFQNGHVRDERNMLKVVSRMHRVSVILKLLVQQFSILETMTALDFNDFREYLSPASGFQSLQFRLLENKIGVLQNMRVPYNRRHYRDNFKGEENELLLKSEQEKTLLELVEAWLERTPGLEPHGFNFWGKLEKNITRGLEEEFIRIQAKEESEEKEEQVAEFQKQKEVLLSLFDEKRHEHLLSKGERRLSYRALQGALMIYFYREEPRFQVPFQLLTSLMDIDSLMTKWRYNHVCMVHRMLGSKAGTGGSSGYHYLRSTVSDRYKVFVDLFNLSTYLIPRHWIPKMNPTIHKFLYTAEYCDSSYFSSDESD
Protocol: as §4

pathway = conditions: reported value; cited from earlier work
[5] = Figure 1, reported IDO1 inhibitors
[6] = mouse, plasma, PO 30 mg/kg, male ICR mice
[7] = mouse, plasma, iv 3 mg/kg, male ICR mice

Cc1ccc(-c2csc3ncc(C(=O)NCCc4cccc(Cl)c4)n23)cc1 [AMCL-17g]
IC50 (IDO1; reported value): 77 nM

Cc1ccc(NC(=O)Nc2cc([C@H]3C[C@H]3C(=O)O)ccc2N(CC(C)C)CC(C)C)cc1 [BMS-978587]
IC50 (IDO1; [5]): 7.1 nM

C[C@@H](C(=O)Nc1ccc(Cl)cc1)C1CCC(c2ccnc3ccc(F)cc23)CC1 (some centres unmarked) [BMS-986205]
IC50 (IDO1; [5]): 1.7 nM

O=S(=O)(NCCCOc1ccccc1-c1cnc[nH]1)C(F)(F)F [DX-03-12, N-(3-(2-(1H-imidazol-5-yl)phenoxy)propyl)-1,1,1-trifluoromethane sulfonamide]
effect on body weight of the mice [1]: no obvious weight loss; also recorded: no obvious effect | effect on peripheral white blood cells [1]: no obvious effect | inhibition at 50 µM (MCF7): 6.6% | inhibition at 50 µM [2]: 19.3% | t1/2β ([3]; PO 30 mg/kg, male ICR mice, 30 mg/kg): 4.6 h and 4.61 h | Vss ([3]; iv 3 mg/kg, male ICR mice, 3 mg/kg): 10.1 L/kg | plasma clearance as % of mouse hepatic blood flow ([3]; iv 3 mg/kg, hepatic blood flow 90 mL/min/kg): ~36% | Vd ([3]; male, ICR, mouse, plasma, iv, 3 mg/kg, iv 3 mg/kg, male ICR mice, read-out: Vss): 10 L/kg | half-life ([3]; male, ICR, mouse, plasma, iv, 3 mg/kg, iv 3 mg/kg, male ICR mice): 209 min | bioavailability ([3]; male, ICR, mouse, plasma, oral, 30 mg/kg, PO 30 mg/kg vs iv 3 mg/kg, male ICR mice, read-out: F% (oral bioavailability)): ~96% | half-life ([3]; male, ICR, mouse, plasma, po, 30 mg/kg, PO 30 mg/kg, male ICR mice): ~276 min | AUC(0-inf) [3, 6]: 13100 ng·h/mL | AUC(0-t) [3, 6]: 12900 ng·h/mL | Tmax [3, 6]: 60 min | AUC(0-inf) [3, 7]: 1500 ng·h/mL | AUC(0-t) [3, 7]: 1350 ng·h/mL | Tmax [3, 7]: 1.98 min | clearance [3, 7]: 33.3 mL/min/kg | Cmax ([3]; mouse, PO 30 mg/kg, male ICR mice, plasma): 2960 ng/mL | Cmax ([3]; mouse, iv 3 mg/kg, male ICR mice, plasma): 2140 ng/mL | IC50 (rhIDO1): 300 nM | decrease in tumor weight (tumor growth inhibition) vs control ([4]; i.p.): 72.3% | decrease in tumor weight (tumor growth inhibition) vs control ([4]; oral): 72.2% | TDO inhibition, in words (rhTDO): marginal | inhibition at 50 µM (rhTDO): 36.4%

O=C(NCCCOc1ccccc1-c1cnc[nH]1)Nc1ccc(C(F)(F)F)cc1 [DX-03-13, 1-(3-(2-(1H-imidazol-5-yl)phenoxy)propyl)-3-(4-(trifluoromethyl)phenyl)urea]
IC50 (MCF7; unit inferred, read-out: MCF7 IC50 or %): 21.4 µM | IC50 ([2]; unit inferred, read-out: H460 IC50 or %): 13.8 µM | IC50 (rhIDO1): 500 nM | TDO inhibition, in words (rhTDO): marginal | inhibition at 50 µM (rhTDO): 38.9%

COc1ccc(Cl)cc1-c1cn(Cc2ccc(C(F)(F)F)cc2)cn1 [DX-04-01, 4-(5-chloro-2-methoxyphenyl)-1-(4-(trifluoromethyl)benzyl)-1H-imidazole]
IC50 (MCF7; read-out: MCF7 IC50): 8.53 µM | IC50 ([2]; read-out: H460 IC50): 12 µM | inhibition at 50 µM (rhIDO1): 46.2% | inhibition at 50 µM (rhTDO): 26.5%

Oc1ccc(Cl)cc1-c1cn(Cc2ccc(C(F)(F)F)cc2)cn1 [DX-04-02, 4-chloro-2-(1-(4-(trifluoromethyl)benzyl)-1H-imidazol-4-yl)phenol]
IC50 (MCF7; read-out: MCF7 IC50): 35.7 µM | IC50 ([2]; read-out: H460 IC50): 7.69 µM | inhibition at 50 µM (rhIDO1): 9.7% | inhibition at 50 µM (rhTDO): 18%

Oc1ccc(Cl)cc1-c1cn(Cc2ccc(C(F)(F)F)cc2)nn1 [DX-04-05, 4-chloro-2-(1-(4-(trifluoromethyl)benzyl)-1H-1,2,3-triazol-4-yl)phenol]
IC50 (MCF7; read-out: MCF7 IC50): 42.6 µM | IC50 ([2]; read-out: H460 IC50): 22.9 µM | IDO1 inhibition, in words (rhIDO1): moderate | IC50 (rhIDO1): 23000 nM | inhibition at 50 µM (rhTDO): 22.4%

COc1ccc(Cl)cc1-c1cn(Cc2ccc(C(F)(F)F)cc2)nn1 [DX-04-06, 4-(5-chloro-2-methoxyphenyl)-1-(4-(trifluoromethyl)benzyl)-1H-1,2,3-triazole]
IC50 (MCF7; read-out: MCF7 IC50): 49.3 µM | IC50 ([2]; read-out: H460 IC50): 48.4 µM | inhibition at 50 µM (rhIDO1): 13.5% | inhibition at 50 µM (rhTDO): 23.6%

Oc1ccc(Cl)cc1-c1nn[nH]c1-c1ccc(C(F)(F)F)cc1 [DX-04-07, 4-chloro-2-(5-(4-(trifluoromethyl)phenyl)-1H-1,2,3-triazol-4-yl)phenol]
IC50 (MCF7; read-out: MCF7 IC50): 12.3 µM | IC50 ([2]; read-out: H460 IC50): 27.4 µM | inhibition at 50 µM (rhIDO1): 38.2% | inhibition at 50 µM (rhTDO): 21.4%

COc1ccc(Cl)cc1-c1nn[nH]c1-c1ccc(C(F)(F)F)cc1 [DX-04-08, 4-(5-chloro-2-methoxyphenyl)-5-(4-(trifluoromethyl)phenyl)-1H-1,2,3-triazole]
inhibition at 50 µM (MCF7): 24.9% | inhibition at 50 µM [2]: 7.5% | inhibition at 50 µM (rhIDO1): 21.2% | inhibition at 50 µM (rhTDO): 11.2%

O=C1c2ccccc2-n2c1nc1ccccc1c2=O [Tryptanthrin]
IC50 (IDO1; [5]): 534 nM

Cn1cc(C[C@@H](N)C(=O)O)c2ccccc21 [indoximod]
IC50 (pathway): 450 nM
